From BindingDB's records for PubMed 8632757 (Merck Sharp & Dohme Research Laboratories, 1996)

How the values were obtained:
[1] = target: Gamma-aminobutyric acid receptor subunit alpha-6 (Homo sapiens, UniProt Q16445)
[2] = target: T1, Gamma-aminobutyric acid receptor subunit alpha-1 (Homo sapiens, UniProt P14867)
T1 sequence (P14867 whole entry): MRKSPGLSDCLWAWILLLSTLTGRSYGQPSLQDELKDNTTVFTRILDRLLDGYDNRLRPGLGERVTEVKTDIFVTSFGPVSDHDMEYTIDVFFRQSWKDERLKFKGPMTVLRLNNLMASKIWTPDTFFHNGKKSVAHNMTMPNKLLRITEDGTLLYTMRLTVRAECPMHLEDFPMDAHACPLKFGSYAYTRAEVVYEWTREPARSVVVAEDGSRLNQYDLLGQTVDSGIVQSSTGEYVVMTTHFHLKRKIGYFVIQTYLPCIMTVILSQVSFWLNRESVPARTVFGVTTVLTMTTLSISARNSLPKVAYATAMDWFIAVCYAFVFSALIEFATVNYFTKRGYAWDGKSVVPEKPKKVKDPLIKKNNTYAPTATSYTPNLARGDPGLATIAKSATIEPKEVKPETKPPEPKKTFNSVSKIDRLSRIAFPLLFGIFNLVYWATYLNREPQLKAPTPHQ

Gamma-aminobutyric acid receptor subunit alpha-6, sequence (Q16445 whole entry): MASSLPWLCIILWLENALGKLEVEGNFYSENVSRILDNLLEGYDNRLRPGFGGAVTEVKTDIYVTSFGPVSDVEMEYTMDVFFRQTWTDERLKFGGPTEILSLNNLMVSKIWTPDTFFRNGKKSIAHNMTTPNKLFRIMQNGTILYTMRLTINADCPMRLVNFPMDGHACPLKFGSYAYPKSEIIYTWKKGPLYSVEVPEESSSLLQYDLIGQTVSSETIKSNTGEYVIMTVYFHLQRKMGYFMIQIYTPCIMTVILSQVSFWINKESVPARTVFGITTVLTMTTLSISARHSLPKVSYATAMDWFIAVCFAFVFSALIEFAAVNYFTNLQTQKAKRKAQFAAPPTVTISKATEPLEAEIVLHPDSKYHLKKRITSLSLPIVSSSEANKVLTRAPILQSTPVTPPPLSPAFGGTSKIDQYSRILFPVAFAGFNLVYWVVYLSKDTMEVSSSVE

Structure (SMILES)	Ki [1] [nM]	Ki [2] [nM]
CN1C(=O)CN=C(c2ccccc2)c2cc(Cl)ccc21	> 10000	
Cc1nnc2ccc(-c3cccc(C(F)(F)F)c3)nn12	> 10000	89.5
COC(=O)c1cc2c(cn1)[nH]c1ccccc12	2050	1
CC(C)(C)OC(=O)c1ncn2c1C1CCCN1C(=O)c1c(Br)cccc1-2 (stereo not drawn) [8-Bromo-7-oxo-3b,4,5,6-tetrahydro-7H-2,6a,11b-triaza-benzo[g]cyclopenta[e]azulene-3-carboxylic acid tert-butyl ester]	12.7	
Cc1ccc(-c2nc3ccc(C)cn3c2CC(=O)N(C)C)cc1 [Ambien]	> 10000	
CC(C)c1nc(-c2ncn3c2CN(C)C(=O)c2c(Cl)cccc2-3)no1 [FG 8205]	227	0.68
Cc1nnc2n1-c1ccc(Cl)cc1C(c1ccccc1Cl)=NC2 [Halcion]	> 10000	
CCc1c(C(=O)OC)ncc2[nH]c3cc(OC)c(OC)cc3c12 [NSC_104999]	134	11.2
CCOC(=O)c1ncn2c1CN(C)C(=O)c1cc(N=[N+]=[N-])ccc1-2 [RO-154513]		2.6
